Data set [1] can be described thus: Lipophilicity, log D of the compound. The following applies: octanol/water. Type of data set: physicochemical.
Data set [2] in a line: Solubility of the compound. Type of data set: physicochemical.
Data set [3] can be described thus: Intrinsic clearance in rat hepatocytes assessed per million cells. The note with it: read-out: CLH. The data set is classed as ADME, cell-based, Hepatocyte.
A short description of data set [4]: in vitro. The note with it: human, liver microsomes. For orientation: Liver microsomes are a subcellular fraction often used to study metabolism.
Data set [5] is described as follows: in vitro. The following applies: human, Caco-2.
Data set [6] can be described thus: Clearance in iv dosed rat. The data set is classed as ADME, organism-based. The following applies: in vivo.
Data set [7] is described as follows: Oral bioavailability in rat. The data set is classed as ADME, organism-based. The note with it: in vivo.
The nature of data set [8]: Volume of distribution at steady state in iv dosed rat. Type of data set: ADME, organism-based. The following applies: in vivo, read-out: Vdss.
Data set [9] in a line: Half life in iv dosed rat. The data set is classed as ADME, organism-based. The note with it: in vivo.

The structures appear in SMILES notation. In brackets after ≈: the same amount, converted by molar mass.

Take `Cn1nc(-c2cnc(N)c(-c3cnn(C(N)=O)c3)n2)nc1C1(c2ccccc2)CC1`: in [1], the logD (usually lipophilicity at a set pH, counting ionised and neutral species) came out at 2.2.

`Cn1nc(-c2cnc(N)c(-n3nnc4ccccc43)n2)nc1C1(c2ccccc2)CC1`: the logD in data set [1] came to 4.3.

Turning to `Cn1nc(-c2cnc(N)c(-c3cc[nH]n3)n2)nc1C1(c2ccccc2)CC1`, the logD in data set [1] was 3.

With `Cn1nc(-c2cnc(N)c(-n3ccc(C(N)=O)n3)n2)nc1C1(c2ccccc2)CC1`, in data set [1], the logD is 2.8.

`Cn1nc(-c2cnc(N)c(-c3ccc(F)nc3)n2)nc1C1(c2ccccc2)CC1` gave a pH-dependent lipophilicity (logD) in data set [1] of 2.5.

As for `Cn1nc(-c2cnc(N)c(-c3ccc(N)nc3)n2)nc1C1(c2ccccc2)CC1`, in [1], the logD came to 2.

As for `CN(C)S(=O)(=O)n1cc(-c2nc(-c3nc(C4(c5ccccc5)CC4)n(C)n3)cnc2N)cn1`, the concentration in solution in [2] (solubility) was 11 µM (≈ 5.12 µg/mL). Also, the hepatocyte CLint in [3] was 157 µL/min/1e6 cells. The logD in data set [1] worked out at 2.8. Also, in data set [4], the microsomal CLint (commonly the rate of metabolic loss divided by the concentration) is 191 µL/min/mg. Besides, the Papp A→B (in general, how fast a substance crosses the layer from the apical side) in data set [5] was determined as 19 ×10⁻⁶ cm/s.

On to `Cn1nc(-c2cnc(N)cn2)nc1C1(c2ccccc2)CC1`, for which the logD in data set [1] amounted to 1.8.

Regarding `Cc1n[nH]c(C)c1-c1nc(-c2nc(C3(c4ccccc4)CC3)n(C)n2)cnc1N`, the logD in data set [1] turned out to be 2.3.

As for `Cn1nc(-c2cnc(N)c(-c3nnc(C(C)(C)C)o3)n2)nc1C1(c2ccccc2)CC1`, the solubility (in general, the concentration that dissolves in the medium under given conditions) in data set [2] amounted to 3 µM (≈ 1.25 µg/mL). Also, the hepatocyte CLint in [3] came out at 12 µL/min/1e6 cells. In [1], the logD stood at 3.6. The compound also showed a microsomal CLint in data set [4] of 20 µL/min/mg. In [5], this compound yielded a Papp A→B of 24 ×10⁻⁶ cm/s.

`Cn1nc(-c2cnc(N)c(-c3cn[nH]c3)n2)nc1C1(c2ccccc2)CC1` came in with a solubility in data set [2] of 37 µM (≈ 13.3 µg/mL). Also, the hepatocyte CLint in data set [3] is 5 µL/min/1e6 cells. For the same compound, in [1], the logD was 2.1. The microsomal CLint in data set [4] was below 3 µL/min/mg. The Papp A→B in data set [5] stood at 6.6 ×10⁻⁶ cm/s.

For the compound `Cn1nc(-c2cnc(N)c(-c3ccc(C(N)=O)cc3)n2)nc1C1(c2ccccc2)CC1`, in data set [2], the solubility was 177 µM (≈ 72.8 µg/mL). The hepatocyte CLint in [3] was found to be 2 µL/min/1e6 cells. Besides, the logD in data set [1] was 2.2. For the same compound, the microsomal CLint in data set [4] was below 3 µL/min/mg. In data set [5], this compound gave a Papp A→B of 2 ×10⁻⁶ cm/s.

In data set [1], `Cn1nc(-c2cnc(N)c(C#N)n2)nc1C1(c2ccccc2)CC1` yielded a logD of 2.2.

Regarding `Cn1nc(-c2cnc(N)c(-n3cc(C(N)=O)cn3)n2)nc1C1(c2ccccc2)CC1`, in data set [1], the logD came out at 2.8.

As to `Cn1nc(-c2cnc(N)c(-c3ccc(C(N)=O)c(F)c3)n2)nc1C1(c2ccccc2)CC1`, the clearance (usually the rate of elimination divided by the concentration) in [6] is 12 mL/min/kg. The solubility in [2] is 32 µM (≈ 13.7 µg/mL). In addition, the hepatocyte CLint in data set [3] is below 1 µL/min/1e6 cells. The bioavailability (usually the share of a dose that reaches the circulation, judged against a reference dose that is usually intravenous) in data set [7] came to 41%. For the same compound, in data set [8], the Vd is 2.8 L/kg. For the same compound, in [9], the half-life (in general, the time in which the quantity being followed falls by half) was 3.4 h. This compound returned a logD in data set [1] of 2.2. The microsomal CLint in [4] was below 3 µL/min/mg. This compound also showed a Papp A→B in [5] of 13 ×10⁻⁶ cm/s.

(Values after ChEMBL document CHEMBL4000207 (Bioorg Med Chem Lett, 2017).)
